# Measurements from patent US8952048B2, “Treatment of immune disorders using kainate receptor antagonists” (Virginia Commonwealth University, priority 2010, dated 2015).
# “Also recorded” adds a separate entry of the source.
# Columns and labels:
# primary B cells = assay: ADAM10 mRNA by qPCR in primary B cells; type: cell-based, human; conditions: 5 mM KA or glutamate, 30 minutes; normalized to beta-actin
# Description: Alternatively when whole PBMC was used, buffy coats were obtained from the Virginia Blood Service Center (Richmond, Va.). PBMC were isolated by Ficoll gradient density centrifugation. All human studies research was performed in accordance to the Virginia Commonwealth University Institution Review Board per approved protocols. RT-PCR and qPCR. RNA was isolated via standard Trizol (Invitrogen) purification protocol and the Access Quick RT-PCR kit (Promega, Madison Wis.) was used with gene specific primers to examine for the presence of kainate receptor subunits and their transcript variants. Primers were designed using VectorNTI software (Invitrogen). Ready-made Primers® for G3PDH and all custom made primers for all sequences were synthesized by Integrated DNA Technologies (Coralville, Iowa). qPCR experiments were performed by the nucleic acid core in the ABI Prism® 7900 Sequence Detection System (Applied Biosystems, Foster City, Calif.) using the TaqMan® One Step PCR Master Mix Reagents Kit. All the samples were tested in triplicate using the following conditions: 48° C./30 min; 95° C./10 min; and 40 cycles of 95° C./15 sec and 60° C./1 min. The cycle threshold was determined to provide the optimal standard curve values (0.98 to 1.0). The probes and primers for ADAM10 (#Hs00153853_ml) were purchased from ABI. […] Relative ADAM10 mRNA is determined as a relative ratio based upon beta-actin.
# primary human B cells [1] = assay: Immunoglobulin production by primary human B cells (ELISA, 14 days); type: cell-based; conditions: for amount of IgE produced / effect on glutamate enhancement of IgG production: 14 days; for effect on glutamate enhancement of IgG production / effect on glutamate mediated increase in IgE production: 10 μM antagonist before culture; for effect on glutamate enhancement of IgG production: 5 mM glutamate
# Description: (§1) Primary B cells or PBMC were cultured in the presence of 10 ng/mL IL-4 and 1 μg/mL anti-CD40 in complete culture media in the presence or absence of 5 mM KA or 5 mM Glu. When indicated, 200 ng/mL IL-21 was also added. For antagonism studies, prior to culture primary cells were treated with 10 μM vehicle (DMSO), NBQX, NS102, or TPM. After 14 days of culture, cell free supernatants were analyzed via ELISA for Ig levels. As cells are grown at various densities, line graphs represent Ig production as compared to cell density.
# (§2) To determine the effect of ADAM10 inhibition on Ig production, purified human B cells were cultured with 10 ng/mL IL-4, 1 μg/mL anti-CD40, and 200 ng/mL IL-21 in complete culture media in the presence of DMSO as vehicle control or 10 μM ADAM10 specific inhibitor. Five days later, cell free supernatants were harvested for soluble CD23 release and fourteen days later, cell free supernatants were analyzed for Ig production. ELISAs. Human sCD23 ELISA was measured using a standard sandwich ELISA approach, using a mouse anti-CD23 (Clone BU38) coating antibody and sheep anti-CD23 (both from The Binding Site Birmingham, UK). Detection is performed with a goat anti-sheep IgG tagged with HRP (Southern Biotech Birmingham, Ala.). Determination of human IgE levels utilized a monoclonal mouse anti-human IgE antibody (clone 4.15) as a capture. Samples and standards were detected using a rabbit anti-human IgE-HRP (Southern Biotech) diluted in PBS/10% FBS. Human IgG or IgM were detected using a goat anti-human IgG or IgM followed by detection with a goat anti-human IgG or IgM tagged with HRP (All from Southern Biotech). Standards for the IgG and IgM ELISAs were purchased from Sigma. IgE standards were purified from JW8 hybridoma cells as previously described (Caven et al., 2005a). All assays utilized TMB substrate (BD Pharmingen San Diego, Calif.) and the reactions were stopped with 0.18M H2SO4. Plates are read at a wavelength of 450 nm on a SpectraMax 250 and data analyzed using SOFTmax PRO 3.1.2 software (Molecular Devices, Los Angeles, Calif.).
# RPMI8866 cells = assay: Soluble CD23 release assay in RPMI8866 cells; type: cell-based, human; conditions: for effect on increase in sCD23 release caused by KAR stimulation: 50 μM antagonist 1 hr prior to 5 mM KA or Glu; for effect on baseline sCD23 release: 50 μM antagonist, no KA or Glu
# Description: For these studies, the CD23+ human B cell line RPMI8866 was grown in the presence or absence of 5 mM KA or Glu for 24 hours in CDMEM10 at a concentration of 1×10^6 cells/mL. For antagonist studies, prior to the addition of KA or Glu cells were pre-treated with 50 μM vehicle (DMSO), NBQX, NS 102, or TPM for one hour. After incubation, cell free supernatants were harvested and sCD23 levels determined by ELISA. […] Forty-eight hours later cell free supernatants were harvested for ELISA.
# as §2
# [2] = tested on: B cells from SLE patients; assay: SLE vs. normal donor B cell activity in the presence of antagonist; type: cell-based, human; conditions: Example 3, written in present tense
# From the text: Peripheral blood from both SLE patients and normal donors is obtained. Presence of KARS: Specific KAR primers and Western protocols are used to analyze mRNA and protein expression, respectively, in cultured B cells from SLE patients. Flow cytometry is used to confirm cell surface expression. Comparison of the expression of KARs on B cells from normal vs. SLE patients, the presence of KARs on SLE patient B cells is confirmed.
# B cells isolated from both donor populations are stimulated with anti-CD40 in the presence or absence of KAR activation to induce cellular proliferation. Differences among both groups both with and without KAR stimulation are determined. Proliferation is measured via H^3 thymidine incorporation as well as cell cycle divisions via CFSE dilution analysis.
# B cells isolated from both populations are put in culture in the presence of IL-4 and anti-CD40, the two signals required for Ig production, in the presence or absence of KAR activation. After 14 days of culture, cell free supernatants are analyzed for total IgM, IgG, and IgE via ELISA. Furthermore, specificity of human antibodies is determined by employing commercially available human anti-nuclear antibody (ANA), anti-snRNP/Smith, and anti-dsDNA ELISA kits.
# SLE vs. normal donor B cell activity is compared in the presence of at least one antagonist such as NS 102.
# GluK2 containing KARs = conditions: Verdoorn et al., 1994; cited from earlier work
# primary human B cells [3] = assay: [3H]-thymidine proliferation assay, primary B cells; type: cell-based
# Description: (§3) When PBMC is used the cell concentration is 100,000 cells/well. […] After 96 hours of growth, a 24 hr pulse [H^3]-thymidine (Perkin Elmer) was used. Plates were then harvested using a Filtermate cell harvester onto GFC plates. Assays were read using a Topcount Plate Counter (Perkin Elmer, Waltham, Mass.).
# Human PBMC [4] = assay: Immunoglobulin production in PBMC cultures (ELISA, 14 days); type: cell-based
# Description: as §1, §2
# B cells from KAR KO mice = assay: In vitro culture of B cells from KAR KO mice with glutamate; type: cell-based, mouse; conditions: in the presence of glutamate; data not shown
# Human PBMC [5] = assay: Proliferation assay, PBMC; type: cell-based; conditions: addition of glutamate
# Description: as §3
# [6] = IL-4, anti-CD40, IL-21, 5 mM glutamate, CDMEM-10, 14 days
# [7] = 10 μM pretreatment 1 hour before glutamate
# [8] = anti-CD40, IL-4, IL-21, glutamate
smiles,measurement,setting,value
"C=C(C)[C@H]1CN[C@H](C(=O)O)[C@H]1CC(=O)O [KA, kainic acid]",ADAM10 mRNA levels,primary B cells,significant increase
same,amount of IgE produced,"primary human B cells [1]; IL-4 and anti-CD40, CRPMI-10, 5 mM KA or Glu",strong and statistically significant increase
same,amount of sCD23 released following KAR activation,"RPMI8866 cells; 5 mM KA or Glu, 24 hours, CDMEM10",significant elevation
NS(=O)(=O)c1cccc2c1c([N+](=O)[O-])cc1nc(O)c(O)nc12 [NBQX],effect on glutamate enhancement of IgG production,primary human B cells [1],unaffected
same,effect on glutamate mediated increase in IgE production,primary human B cells [1]; [6],no effect
same,effect on increase in sCD23 release caused by KAR stimulation,RPMI8866 cells; 24 hours,no change is observed
same,effect on baseline sCD23 release,RPMI8866 cells,none of the antagonists have any effect
"O=C1Nc2c(cc([N+](=O)[O-])c3c2CCCC3)C1=NO [NS102, 5-Nitro-6,7,8,9-tetrahydro-1H-benzo[g]indole-2,3-dione 3-oxime]",B cell hyperactivity in SLE patients,[2],overcomes the B cell hyperactivity
same,selectivity of KAR antagonism,GluK2 containing KARs,selectively antagonizes
same,effect on glutamate enhancement of IgG production,primary human B cells [1],blocked
same,effect on glutamate mediated increase in IgE production,primary human B cells [1]; [6],almost completely blocks
same,effect on glutamate mediated increase in IgE production,"primary human B cells [1]; IL-4, anti-CD40, IL-21, 5 mM glutamate, CDMEM-10, 14 days, listed as NS-102",dramatically reduced
same,effect on glutamate-induced increase in proliferation,primary human B cells [3]; 10 μM pretreatment 1 hour before 5 mM glutamate,prevented
same,effect on increase in sCD23 release caused by KAR stimulation,RPMI8866 cells; 24 hours,could prevent the significant increase
same,effect on baseline sCD23 release,RPMI8866 cells,none of the antagonists have any effect
same,effect on glutamate increase in IgE production,Human PBMC [4]; [7],strongly blocked
same,effect on glutamate increase in IgG production,Human PBMC [4]; [7],strongly blocked
"CC1(C)O[C@@H]2[C@@H](CO[C@@]3(COS(N)(=O)=O)OC(C)(C)O[C@@H]23)O1 [TPM, topiramate]",effect on glutamate mediated increase in IgE production,primary human B cells [1]; [6],did not influence IgE production
same,effect on increase in sCD23 release caused by KAR stimulation,RPMI8866 cells; 24 hours,no change is observed
same,effect on baseline sCD23 release,RPMI8866 cells,none of the antagonists have any effect
"N[C@@H](CCC(=O)O)C(=O)O [glutamate, L-glutamic acid]",ADAM10 mRNA levels,primary B cells,significant increase
same,Ig synthesis,B cells from KAR KO mice,did not show any enhanced
same,proliferation,B cells from KAR KO mice,did not show any enhanced
same,sCD23 release,B cells from KAR KO mice,did not show any enhanced
same,total IgG production,primary human B cells [1]; [6],Enhancement in IgG production was seen in all but the highest density cultures
same,total IgM levels,primary human B cells [1]; [6],not influenced
same,amount of IgE produced,"primary human B cells [1]; IL-4, anti-CD40 plus IL-21, 5 mM glutamate",much more IgE; also recorded: pronounced increase
same,proliferation,Human PBMC [5],also affected
same,cell proliferation,"primary human B cells [3]; 5 mM glutamate, IL-4, anti-CD40, IL-21, 96 hours plus 24 hr pulse",significant increase in proliferation
same,IgE synthesis,Human PBMC [4]; [8],very strong enhancement
same,IgM production,Human PBMC [4]; [8],not significantly influenced
same,total IgG production,Human PBMC [4]; [8],IgG enhancement was seen
